Consider 7 compounds from US20260274894A1, “CYCLIC POLYPEPTIDE COMPOUND AND USE THEREOF” (BIVISION PHARMACEUTICALS, INC., priority 2023, published 2026).

Numbered stars: 1 amine (or outer) side, 2 acyl side, 3 side chain; on linkers, the order of the positions; unused ones are H or OH. Bridge positions count the residues as written; N and C are the ends. Square brackets hold non-standard residues; d marks the D form. Side chains are listed from the residue outwards. Peptide text beside a SMILES is read from it. * marks the point of attachment. ξ: configuration not given here. Acetyl(4-DOTA-piperazinyl) = O=C(O)CN1CCN(CC(=O)O)CCN(CC(=O)N2CCN(CC(=O)*)CC2)CCN(CC(=O)O)CC1; X2 = O=C(O)CN1CCN(CC(=O)O)CCN(CC(=O)N2CCN(CCCN*)CC2)CCN(CC(=O)O)CC1; X1 = O=C(O)CN1CCN(CC(=O)O)CCN(CC(=O)CCCN*)CCN(CC(=O)O)CC1; DOTA = O=C(O)CN1CCN(CC(=O)O)CCN(CC(=O)*)CCN(CC(=O)O)CC1; Azetidine3carboxylic = O=C(C1CN([*:1])C1)[*:2]; mXylylene = c1cc(C[*:1])cc(C[*:2])c1; Cha = N[C@@H](CC1CCCCC1)C(=O)O; Dab = NCC[C@H](N)C(=O)O; Dap = NC[C@H](N)C(=O)O; Aoc = NCCCCCCCC(=O)O; CO = O=C([*:1])[*:2]; ξP = O=C(O)C1CCCN1; ξC = NC(CS)C(=O)O; NHBu = CCCCN* A value given as a limit tells only on which side of the number the result lay.

Data set [1] has as its target T1, fibroblast activation protein (FAP) (Homo sapiens, UniProt Q12884).
T1 sequence (Q12884 1-760): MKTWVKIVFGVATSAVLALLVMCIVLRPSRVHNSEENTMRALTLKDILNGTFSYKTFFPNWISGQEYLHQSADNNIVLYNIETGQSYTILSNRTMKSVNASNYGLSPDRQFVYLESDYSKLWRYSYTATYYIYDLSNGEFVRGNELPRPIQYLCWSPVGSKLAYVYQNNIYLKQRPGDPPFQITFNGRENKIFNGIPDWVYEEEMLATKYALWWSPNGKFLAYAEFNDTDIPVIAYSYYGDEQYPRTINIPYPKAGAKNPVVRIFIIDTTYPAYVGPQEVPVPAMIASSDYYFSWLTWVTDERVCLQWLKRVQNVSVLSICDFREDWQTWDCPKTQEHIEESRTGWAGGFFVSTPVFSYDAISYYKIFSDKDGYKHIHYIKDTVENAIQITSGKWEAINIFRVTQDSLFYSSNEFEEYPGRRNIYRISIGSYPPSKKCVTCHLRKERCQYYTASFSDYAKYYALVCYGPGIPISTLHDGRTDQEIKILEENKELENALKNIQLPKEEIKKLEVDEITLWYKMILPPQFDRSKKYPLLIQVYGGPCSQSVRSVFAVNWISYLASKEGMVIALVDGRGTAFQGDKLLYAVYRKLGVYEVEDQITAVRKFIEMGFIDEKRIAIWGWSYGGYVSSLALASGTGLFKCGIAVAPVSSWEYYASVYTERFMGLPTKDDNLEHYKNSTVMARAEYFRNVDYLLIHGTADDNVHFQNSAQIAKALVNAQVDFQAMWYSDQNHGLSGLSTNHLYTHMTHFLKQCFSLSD
The data set can be described thus: Protease inhibition (selectivity) assay, FAP, Z-Gly-Pro-AMC substrate. Type of data set: biochemical. Conditions: recombinant human FAP 1.2 nM. The method, then: (§1) The specificity of the synthesized compounds for recombinant human dipeptidyl peptidase IV (DPPIV), fibroblast activation protein (FAP), or prolyl oligopeptidase (PREP) was expressed by their half-maximal inhibitory concentration (IC50) against the proteases. […] No. I-1145.0050BA) in DMSO; DPPIV: 100 mM Gly-Pro-AMC (VWR, Cat. No. 100042-646) in DMSO), and the stock solution of the substrate was subsequently diluted 20-fold using the corresponding buffer described above. • 4) The enzyme was diluted into an appropriate assay buffer. […] Column 1 (A, B, C) was prepared using 200 μL of an appropriate analysis buffer as a control. Column 1 (D, E, F, G, H) was prepared with 20 μL of an appropriate assay buffer and 180 μL of the enzyme as the inhibitor-free control. • 5) Where appropriate, 20 μL of the test compound was added from the dilution plate prepared in step 2 to columns 2-10 of the assay plate. Each sample should be tested in triplicate. It was incubated at room temperature for 10 minutes, with the plate being shaken for the first two minutes. • 6) 10 μL of the 20× substrate prepared in step 3 was added to each well and incubated at room temperature for 15 minutes, with the plate being shaken for the first two minutes. • 7) Fluorescence was read at λex:380 and λem:460.

The target of a further data set is T2, FAP protein (Homo sapiens, UniProt Q12884).
T2 construct: purchased Sinobiological
T2 sequence (Q12884 1-760): T1 sequence (Q12884 1-760)
The data set can be described thus: Biacore test of compound affinity to FAP protein. Conditions: Biacore 8K, SA chip, 15° C., 1:1 binding model; read-out: pKD (FAP) (converted). In outline:
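FAP captured on an SA chip; compounds run as analyte in single-cycle kinetics at 15° C (90 s contact, 1800 s dissociation, 30 μL/min), reference-subtracted (2-1). Sensorgrams fitted to a 1:1 binding model to give KD, reported as pKD = −log KD.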
A general note: In SPR one partner is held on a chip, and binding of the other changes the refractive index at the surface.

The target of data set [2] is T3, prolyl oligopeptidase (PREP) (Homo sapiens, UniProt P48147).
T3 sequence (P48147 1-710): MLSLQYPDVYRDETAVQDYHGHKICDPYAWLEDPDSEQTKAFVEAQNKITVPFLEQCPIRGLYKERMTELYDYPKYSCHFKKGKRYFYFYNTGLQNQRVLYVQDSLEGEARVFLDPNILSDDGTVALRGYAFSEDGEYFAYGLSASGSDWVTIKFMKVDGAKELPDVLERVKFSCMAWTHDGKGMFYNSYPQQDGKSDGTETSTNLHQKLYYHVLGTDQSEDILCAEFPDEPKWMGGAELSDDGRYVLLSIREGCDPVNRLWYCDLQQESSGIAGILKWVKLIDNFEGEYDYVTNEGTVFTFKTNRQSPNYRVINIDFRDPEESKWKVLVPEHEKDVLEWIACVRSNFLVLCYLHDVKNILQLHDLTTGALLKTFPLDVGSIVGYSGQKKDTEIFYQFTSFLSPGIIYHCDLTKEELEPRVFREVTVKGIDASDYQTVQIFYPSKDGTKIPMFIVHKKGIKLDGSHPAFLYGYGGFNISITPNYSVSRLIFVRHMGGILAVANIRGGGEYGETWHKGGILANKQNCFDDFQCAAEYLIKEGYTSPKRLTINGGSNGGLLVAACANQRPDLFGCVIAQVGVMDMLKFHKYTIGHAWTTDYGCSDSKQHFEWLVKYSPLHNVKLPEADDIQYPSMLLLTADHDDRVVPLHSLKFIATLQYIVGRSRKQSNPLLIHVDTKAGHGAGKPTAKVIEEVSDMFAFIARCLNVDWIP
The data set can be described thus: Protease inhibition (selectivity) assay, PREP, Z-Gly-Pro-AMC substrate. Type of data set: biochemical. Conditions: recombinant human PREP 0.6 nM. The method, then:
as §1

The target of data set [3] is dipeptidyl peptidase IV (DPPIV) (Homo sapiens, UniProt P27487). The data set can be described thus: Protease inhibition (selectivity) assay, DPPIV, Gly-Pro-AMC substrate. Format: biochemical. The settings on record: recombinant human DPPIV 0.1 nM; read-out: pIC50 (DPPIV) (converted). The method, then:
as §1

Data set [4] in a line: Animal body weight after injection of ^177Lu-labeled compound. Conditions: Day 2. The method, then: 6- to 8-week-old (Balb/c Nude) mice were subcutaneously inoculated on the right scapula with 2×10^6 cells of HT1080 2 # (50% o Matrigel, Corning). When the tumors grew to the size as required by the assay, the animals were randomly assigned to 13 experimental groups based on tumor volume, with 5 animals per group. The body weight and tumor size were measured. On the day of grouping, administration was initiated for the control group (normal saline) and groups 1-12. General health and appearance were observed daily after the experiment began. Body weight and tumor size were measured prior to each sample collection time point. Any abnormal observations found during the entire study period were required to be recorded in the raw data.

Chain of dipeptidyl peptidase IV (DPPIV) (P27487 whole entry): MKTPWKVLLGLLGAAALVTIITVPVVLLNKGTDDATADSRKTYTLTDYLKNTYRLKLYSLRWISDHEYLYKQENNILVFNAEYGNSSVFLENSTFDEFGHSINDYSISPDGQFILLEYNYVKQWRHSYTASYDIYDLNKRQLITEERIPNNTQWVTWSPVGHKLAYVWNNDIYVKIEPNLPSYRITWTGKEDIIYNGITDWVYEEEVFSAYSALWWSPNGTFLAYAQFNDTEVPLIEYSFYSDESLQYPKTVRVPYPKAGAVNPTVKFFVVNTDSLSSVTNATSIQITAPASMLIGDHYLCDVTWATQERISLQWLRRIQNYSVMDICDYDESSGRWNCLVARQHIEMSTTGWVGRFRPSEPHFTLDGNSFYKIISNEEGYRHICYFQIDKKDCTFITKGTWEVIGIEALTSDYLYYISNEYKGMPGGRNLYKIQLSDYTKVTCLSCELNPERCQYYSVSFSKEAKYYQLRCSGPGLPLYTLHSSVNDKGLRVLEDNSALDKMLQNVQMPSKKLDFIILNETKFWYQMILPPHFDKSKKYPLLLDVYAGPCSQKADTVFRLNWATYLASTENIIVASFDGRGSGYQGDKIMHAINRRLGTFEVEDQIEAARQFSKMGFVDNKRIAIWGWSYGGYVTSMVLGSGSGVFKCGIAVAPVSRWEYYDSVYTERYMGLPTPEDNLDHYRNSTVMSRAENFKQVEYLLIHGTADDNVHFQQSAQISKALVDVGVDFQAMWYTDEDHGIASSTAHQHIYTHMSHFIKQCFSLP

Consider `CCCCCC(=O)N[C@H]1CSCc2cccc(c2)CSC[C@@H](C(=O)N[C@@H](CCC(=O)NCCNC(=O)CN2CCN(CC(=O)O)CCN(CC(=O)O)CCN(CC(=O)O)CC2)C(=O)O)NC(=O)[C@H](Cc2ccccc2)NC(=O)[C@H](CCC(N)=O)NC(=O)[C@H]([C@@H](C)O)NC(=O)[C@@H]2CCCN2C(=O)C2CN(C2)C1=O` [JHDC23, Hex[Cys(3MeBn)-hhy39-Pro-Thr-Gln-Phe-Cys]-Glu-(EDA-DOTA)-OH], for which the IC50 is less than 10 nM in data set [1], greater than 1000 nM in data set [2] and greater than 1000 nM in data set [3]. Besides, on FAP protein, the Kd was 10 to 100 nM.

Regarding `CCCCNC(=O)N[C@H]1CSCc2cccc(c2)CSC[C@@H](C(=O)N[C@@H](CCC(=O)NCCCC(=O)CN2CCN(CC(=O)O)CCN(CC(=O)O)CCN(CC(=O)O)CC2)C(=O)O)NC(=O)[C@H](Cc2ccccc2)NC(=O)[C@H](CCC(N)=O)NC(=O)[C@H]([C@@H](C)O)NC(=O)[C@@H]2CCCN2C(=O)C2CN(C2)C1=O` [JHDC24, nBu-urea-[Cys(3MeBn)-hhy39-Pro-Thr-Gln-Phe-Cys]-Glu-(EDA-DOTA)-OH] ({NHBu-CO}-C[Azetidine3carboxylic]PTQFCE(X1)-OH; linker 1-7 via mXylylene), the IC50 in data set [1] was less than 10 nM; in data set [2] it was greater than 1000 nM; in data set [3] it was greater than 1000 nM. For the same compound, at FAP protein, the Kd was 10 to 100 nM.

As to `CCCCNC(=O)N[C@H]1CSCc2cccc(c2)CSCC(C(=O)N[C@@H](CNC(=O)CN2CCN(C(=O)CN3CCN(CC(=O)O)CCN(CC(=O)O)CCN(CC(=O)O)CC3)CC2)C(=O)O)NC(=O)[C@H](CC2CCCCC2)NC(=O)[C@H](CCC(N)=O)NC(=O)[C@H]([C@@H](C)O)NC(=O)C2CCCN2C(=O)C2CN(C2)C1=O` (stereo partly drawn) [JHDC47, nBu-urea-[Cys(3MeBn)-hhy39-Pro-Thr-Gln-hhy34-Cys]-DAPA-(Ac-piperazine-DOTA)-OH] ({NHBu-CO}-C[Azetidine3carboxylic][ξP]TQ[Cha][ξC][Dap](Acetyl(4-DOTA-piperazinyl))-OH; linker 1-7 via mXylylene), the IC50 was less than 10 nM in data set [1], greater than 1000 nM in data set [2] and greater than 1000 nM in data set [3]. Besides, the Kd at FAP protein is less than 10 nM.

Regarding `CCCCNC(=O)N[C@H]1CSCc2cccc(c2)CSC[C@@H](C(=O)N[C@@H](CCC(=O)NCCCN2CCN(C(=O)CN3CCN(CC(=O)O)CCN(CC(=O)O)CCN(CC(=O)O)CC3)CC2)C(=O)O)NC(=O)[C@H](Cc2ccccc2)NC(=O)[C@H](CCC(N)=O)NC(=O)[C@H]([C@@H](C)O)NC(=O)C2CCCN2C(=O)C2CN(C2)C1=O` (stereo partly drawn) [JHDC48, nBu-urea-[Cys(3MeBn)-hhy39-Pro-Thr-Gln-Phe-Cys]-Glu-(aminopropylpiperazine-DOTA)-OH] ({NHBu-CO}-C[Azetidine3carboxylic][ξP]TQFCE(X2)-OH; linker 1-7 via mXylylene), the IC50 in data set [1] is less than 10 nM; in data set [2], greater than 1000 nM; in data set [3] it was greater than 1000 nM. Also, the Kd at FAP protein was 10 to 100 nM.

Regarding `CCCCNC(=O)N[C@H]1CSCc2cccc(c2)CSCC(C(=O)N[C@@H](CCNC(=O)CCCCCCCNC(=O)CN2CCN(CC(=O)O)CCN(CC(=O)O)CCN(CC(=O)O)CC2)C(=O)O)NC(=O)[C@H](CC2CCCCC2)NC(=O)[C@H](CCC(N)=O)NC(=O)[C@H]([C@@H](C)O)NC(=O)C2CCCN2C(=O)C2CN(C2)C1=O` (stereo partly drawn) [JHDC53, nBu-urea-[Cys(3MeBn)-hhy39-Pro-Thr-Gln-hhy34-Cys]-DABA-(AOA-DOTA)-OH] ({NHBu-CO}-C[Azetidine3carboxylic][ξP]TQ[Cha][ξC][Dab]([Aoc-DOTA])-OH; linker 1-7 via mXylylene), the results for the IC50 in data set [1], in data set [2] and in data set [3] were less than 10 nM, greater than 1000 nM and greater than 1000 nM, respectively. Besides, the Kd on FAP protein is 10 to 100 nM.

Take `CCCCNC(=O)N[C@H]1CSCc2cccc(c2)CSCC(C(=O)N[C@@H](CCNC(=O)CNC(=O)CN2CCN(CC(=O)O)CCN(CC(=O)O)CCN(CC(=O)O)CC2)C(=O)O)NC(=O)[C@H](CC2CCCCC2)NC(=O)[C@H](CCC(N)=O)NC(=O)[C@H]([C@@H](C)O)NC(=O)[C@@H]2CCCN2C(=O)C2CN(C2)C1=O` (stereo partly drawn) [JHDC56, nBu-urea-[Cys(3MeBn)-hhy39-Pro-Thr-Gln-hhy34-Cys]-DABA-(Gly-DOTA)-OH]: the results for the IC50 in data set [1], in data set [2] and in data set [3] were less than 10 nM, greater than 1000 nM and greater than 1000 nM, respectively. Further, at FAP protein, the Kd is less than 10 nM.

Regarding `CCCCNC(=O)N[C@H]1CSCc2cccc(c2)CSCC(C(=O)N[C@@H](CNC(=O)CN2CCN(C(=O)CN3CCN(CC(=O)O)CCN(CC(=O)O)CCN(CC(=O)O)CC3)CC2)C(=O)O)NC(=O)[C@H](CC2CCCCC2)NC(=O)[C@H](CCC(N)=O)NC(=O)[C@H]([C@@H](C)O)NC(=O)C2CCCN2C(=O)C2CN(C2)C1=O` (stereo partly shown) [^177Lu-JHDC47, metal not drawn] ({NHBu-CO}-C[Azetidine3carboxylic][ξP]TQ[Cha][ξC][Dap](Acetyl(4-DOTA-piperazinyl))-OH; linker 1-7 via mXylylene), in data set [4], the “Animal body weight” value turned out to be 16.00 ± 0.54 g.
